According to ChEMBL document CHEMBL1201862, “PubChem BioAssay data set” (2004):
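These data come from cells grown in 96-well plates and exposed to compound for 48 hours at five concentrations. The concentration for 50% growth inhibition is given as GI50.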 Active and inactive are the calls of the source. Cut-off read from the data, not from the text of the source: active = GI50 up to about 1.1 µM and inactive = higher.

How the values were obtained:
Experiment in all cases: NCI tumour cell line growth inhibition, 48 h
IGROV-1 = system: IGROV-1
MDA-N = system: MDA-N
SF-268 = system: SF-268
PC-3 = system: PC-3
SN12C = system: SN12C
OVCAR-8 = system: OVCAR-8
UACC-62 = system: UACC-62
SK-MEL-5 = system: SK-MEL-5
HCT-116 = system: HCT-116
T47D = system: T47D
UACC-257 = system: UACC-257
HOP-62 = system: HOP-62
NCI-H23 = system: NCI-H23
KM12 = system: KM12
Malme-3M = system: Malme-3M
TK-10 = system: TK-10
SK-MEL-2 = system: SK-MEL-2
CAKI-1 = system: CAKI-1
MOLT-4 = system: MOLT-4
BT-549 = system: BT-549

Measured: GI50

N=C/N=C/C(=S)O[C@@H]1C(=O)N2CCC[C@@]23CCCC[C@@H]13
inactive: IGROV-1 > 12.5 µM | MDA-N > 12.5 µM | SF-268 > 12.5 µM | PC-3 > 12.5 µM | SN12C > 12.5 µM | OVCAR-8 > 12.5 µM | UACC-62 > 12.5 µM | SK-MEL-5 > 12.5 µM | HCT-116 > 12.5 µM | T47D > 12.5 µM | UACC-257 > 12.5 µM | HOP-62 > 12.5 µM | NCI-H23 > 12.5 µM | KM12 > 12.5 µM | Malme-3M > 12.5 µM | TK-10 > 12.5 µM | SK-MEL-2 > 12.5 µM | CAKI-1 > 12.5 µM

O=c1c(-c2c(-c3ccccc3)oc3ccc(Cl)cc3c2=O)c(-c2ccccc2)oc2ccc(Cl)cc12
inactive: IGROV-1 > 56.2 µM | MDA-N > 100 µM | MOLT-4 > 100 µM | SF-268 > 49.9 µM | PC-3 > 100 µM | SN12C > 100 µM | OVCAR-8 > 74.1 µM | UACC-62 > 82.8 µM | SK-MEL-5 > 100 µM | HCT-116 > 78.3 µM | T47D > 100 µM | UACC-257 > 100 µM | HOP-62 > 39.7 µM | NCI-H23 > 100 µM | KM12 > 100 µM | Malme-3M > 100 µM | TK-10 > 100 µM | SK-MEL-2 > 100 µM | CAKI-1 > 100 µM

CC(C)(C)OC(=O)N1CCc2[nH][nH]c(=O)c2C1
inactive: IGROV-1 > 100 µM | MDA-N > 100 µM | MOLT-4 > 100 µM | BT-549 > 100 µM | SF-268 > 100 µM | PC-3 > 100 µM | SN12C > 100 µM | OVCAR-8 > 100 µM | UACC-62 > 100 µM | HCT-116 > 100 µM | UACC-257 > 100 µM | HOP-62 > 100 µM | NCI-H23 > 100 µM | KM12 > 100 µM | Malme-3M > 100 µM | TK-10 > 100 µM | CAKI-1 > 100 µM

Cc1nnc([C@@]2(C)CC[C@H]3[C@@H](CCC4=CC(=O)CC[C@@]43C)[C@@H]2CC#N)o1
inactive: IGROV-1 > 100 µM | MDA-N > 100 µM | MOLT-4 > 100 µM | BT-549 > 100 µM | SF-268 > 100 µM | PC-3 > 100 µM | SN12C > 100 µM | OVCAR-8 > 100 µM | UACC-62 > 100 µM | SK-MEL-5 > 100 µM | HCT-116 > 100 µM | UACC-257 > 100 µM | HOP-62 > 100 µM | NCI-H23 > 100 µM | KM12 > 100 µM | Malme-3M > 100 µM | TK-10 > 100 µM | SK-MEL-2 > 100 µM | CAKI-1 > 100 µM

O=C1CCCC/C1=C(\Br)I
inactive: IGROV-1 9.38 µM | MOLT-4 2.11 µM | BT-549 17.6 µM | SF-268 9.62 µM | PC-3 17.3 µM | SN12C 16.9 µM | OVCAR-8 14.5 µM | UACC-62 15.5 µM | SK-MEL-5 17.9 µM | HCT-116 12 µM | T47D 7 µM | UACC-257 16.6 µM | HOP-62 19.2 µM | NCI-H23 10.1 µM | KM12 17.1 µM | Malme-3M 5.5 µM | TK-10 13.9 µM | SK-MEL-2 22.3 µM | CAKI-1 12.4 µM

COC(=O)C(Cc1ccc2c(c1)CCC2)Cc1ccc2c(c1)CCC2
inactive: IGROV-1 > 100 µM | MDA-N 59.3 µM | MOLT-4 40.3 µM | BT-549 27.1 µM | SF-268 48.6 µM | PC-3 73.3 µM | SN12C > 100 µM | OVCAR-8 53.6 µM | UACC-62 > 100 µM | SK-MEL-5 25.9 µM | HCT-116 66.2 µM | T47D 20.9 µM | UACC-257 37 µM | HOP-62 > 100 µM | NCI-H23 29.6 µM | KM12 37.3 µM | TK-10 > 100 µM | SK-MEL-2 18.4 µM

Cc1cc2c(cc1Cl)SC(N/N=C(\N)c1ccc(Cl)cc1)=NS2(=O)=O
inactive: IGROV-1 31 µM | MOLT-4 45.7 µM | BT-549 46.7 µM | SF-268 45.6 µM | PC-3 41 µM | SN12C 78.3 µM | OVCAR-8 45.4 µM | UACC-62 59.7 µM | SK-MEL-5 > 100 µM | HCT-116 46.2 µM | T47D 53.3 µM | UACC-257 62.7 µM | HOP-62 > 100 µM | NCI-H23 30.7 µM | KM12 35.2 µM | Malme-3M 38.1 µM | TK-10 > 100 µM | CAKI-1 > 100 µM

CCOC(=O)c1nc2c(Cl)c3ncccc3cc2[nH]c1=O
inactive: IGROV-1 53.5 µM | MOLT-4 10.4 µM | BT-549 21.5 µM | SF-268 44.6 µM | PC-3 30.9 µM | OVCAR-8 29.9 µM | UACC-62 14.6 µM | SK-MEL-5 9.04 µM | HCT-116 31.8 µM | UACC-257 46.7 µM | HOP-62 25.6 µM | NCI-H23 29.3 µM | KM12 31.6 µM | Malme-3M > 100 µM | TK-10 > 100 µM | SK-MEL-2 22.4 µM | CAKI-1 66.5 µM

C=C(C)C1CCC2(C)C1CCC1(C)C2CCC2C3(C)C4OC(OC4=O)C(C)(C)C3CCC21C (configuration not stated)
inactive: IGROV-1 > 100 µM | MDA-N > 100 µM | MOLT-4 > 100 µM | BT-549 > 100 µM | SF-268 > 100 µM | PC-3 > 100 µM | SN12C > 100 µM | OVCAR-8 > 100 µM | UACC-62 > 100 µM | SK-MEL-5 > 100 µM | HCT-116 > 100 µM | T47D 64.6 µM | UACC-257 > 100 µM | HOP-62 > 100 µM | NCI-H23 > 100 µM | KM12 > 100 µM | TK-10 > 100 µM | SK-MEL-2 > 100 µM | CAKI-1 92 µM

CC1=CC(=O)N(n2c(-c3ccccc3)n[nH]c2=O)C1=O
inactive: IGROV-1 > 100 µM | MOLT-4 > 100 µM | BT-549 > 100 µM | SF-268 > 100 µM | PC-3 > 100 µM | SN12C > 100 µM | OVCAR-8 > 100 µM | UACC-62 > 100 µM | SK-MEL-5 > 100 µM | HCT-116 > 100 µM | T47D > 100 µM | UACC-257 > 100 µM | HOP-62 > 100 µM | NCI-H23 > 100 µM | KM12 > 100 µM | Malme-3M > 100 µM | TK-10 > 100 µM | SK-MEL-2 > 100 µM | CAKI-1 > 100 µM

Nc1ccc(C(=O)N2CCC[C@H]2CO)c(N)c1
inactive: IGROV-1 > 100 µM | MDA-N > 100 µM | MOLT-4 > 100 µM | BT-549 > 100 µM | SF-268 > 100 µM | PC-3 > 100 µM | SN12C > 100 µM | OVCAR-8 > 100 µM | UACC-62 > 100 µM | SK-MEL-5 > 100 µM | HCT-116 > 100 µM | T47D > 100 µM | UACC-257 > 100 µM | HOP-62 > 100 µM | NCI-H23 > 100 µM | KM12 > 100 µM | TK-10 > 100 µM | SK-MEL-2 > 100 µM | CAKI-1 > 100 µM

Cc1cn(C2CC(COCc3ccccc3)N(CCO[Si](C)(C)C(C)(C)C)O2)c(=O)[nH]c1=O (configuration not stated)
inactive: MDA-N 14.6 µM | MOLT-4 5.93 µM | SF-268 21.3 µM | PC-3 5.28 µM | SN12C 11 µM | OVCAR-8 15.5 µM | UACC-62 11.9 µM | SK-MEL-5 2.88 µM | HCT-116 16.8 µM | T47D 13.5 µM | HOP-62 17.3 µM | NCI-H23 16.2 µM | KM12 17.3 µM | Malme-3M 18.2 µM | TK-10 14.3 µM | SK-MEL-2 16.4 µM | CAKI-1 18.5 µM

CC(=O)OCC1OC(n2c(=O)[nH]c(=O)c3sccc32)C(Br)C1OC(C)=O (configuration not stated)
inactive: IGROV-1 > 100 µM | MDA-N > 100 µM | MOLT-4 > 100 µM | BT-549 > 100 µM | SF-268 > 100 µM | PC-3 > 100 µM | SN12C > 100 µM | OVCAR-8 > 100 µM | SK-MEL-5 > 100 µM | HCT-116 > 100 µM | UACC-257 > 100 µM | HOP-62 > 100 µM | NCI-H23 > 100 µM | KM12 > 100 µM | Malme-3M > 100 µM | TK-10 > 100 µM | SK-MEL-2 > 100 µM | CAKI-1 > 100 µM

Cc1cs/c(=N\C(P(=O)(O)O)P(=O)(O)O)n1C
inactive: IGROV-1 > 100 µM | MDA-N > 100 µM | MOLT-4 > 100 µM | BT-549 > 100 µM | SF-268 > 100 µM | PC-3 > 100 µM | OVCAR-8 > 100 µM | UACC-62 > 100 µM | SK-MEL-5 86.5 µM | HCT-116 > 100 µM | UACC-257 > 100 µM | HOP-62 > 100 µM | NCI-H23 > 100 µM | KM12 > 100 µM | Malme-3M > 100 µM | TK-10 > 100 µM | CAKI-1 > 100 µM

COc1ccc(OC)c2sc(N3C(=O)/C(=C/c4ccc(SC)cc4)N=C3c3ccccc3)nc12
inactive: IGROV-1 23.3 µM | MDA-N 20.3 µM | MOLT-4 22.3 µM | BT-549 29.4 µM | SF-268 14.1 µM | PC-3 21.7 µM | SN12C 24.9 µM | OVCAR-8 27.7 µM | UACC-62 31.5 µM | SK-MEL-5 15.6 µM | HCT-116 18.7 µM | T47D 26.3 µM | UACC-257 17.3 µM | HOP-62 16.4 µM | KM12 20 µM | TK-10 > 100 µM | SK-MEL-2 20.8 µM | CAKI-1 96.2 µM
